Measured values published in publication PMC8196563, “Trichilones A–E: New Limonoids from Trichilia adolfi” (Molecules, 2021).
In brackets after ≈: the same amount, converted by molar mass. Where two headings read alike, the source gives them in different places.

Tests used:
[1] = Cytotoxicity in murine macrophage cells (resazurin); format: cell-based; details: mouse, Raw 264.7 macrophage cells, Raw 264.7 murine macrophage cells, triplicate
Description: The Raw 264.7 murine macrophage cell line was purchased from the American Type Culture Collection (ATCC-TIB71) (Manassas, VA, USA). The cells were maintained in DMEM-HG medium supplemented with 10% fetal bovine serum, 100 U/mL of penicillin and 100 μg/mL of streptomycin and sodium bicarbonate (2.2 g/L) in humidified atmosphere at 37 °C with 5% CO2. Samples were prepared as described above and added (in […]) at different concentrations (6.2–200 μg/mL). Medium blank, control drugs and cell growth controls were included to evaluate cell viability. The plates were incubated for 72 h at 37 °C with 5% CO2. After incubation for the indicated time, the cells were washed, after which 10 μL of Resazurin reagent (2.0 mM) was added. They were further incubated at 37 °C for 3 h in a humidified incubator. The IC50 values were assessed using a fluorometric reader (540 nm excitation, 590 nm emission) and Gen5 software. All assays were performed in triplicate.

[2] = system: L. braziliensis promastigotes; test: In vitro leishmanicidal activity against promastigotes; format: cell-based; details: Leishmania braziliensis, 72 h, read-out: Leishmanicidal activity L.b, IC50
Description: (§1) Leishmanicidal activity was assayed according to Williams, with some modi-fication. Promastigotes of Leishmania: L. amazonensis, Clone 1, NHOM-BR-76-LTB-012 (Lma, donated by the Paul Sabatier Université, France) and L. braziliensis M2904 C192 RJA (M2904, donated by Dr. Jorge Arévalo from Universidad Peruana Cayetano Heredia, Peru). The strains were cultured in Schneider’s insect medium (pH 6.2), supplemented with 10% FBS and incubated in 96-microwell plates at 26 °C. Briefly, promastigotes in logarithmic phase of growth, at concentration of […], were exposed to samples dissolved in DMSO (1%) at different concentrations (3.1–100 μg/mL). Miltefosine (3.1–100 μg/mL, IDPS, France) was used as a positive control drug. The microwell plates were incubated for 72 h at 26 °C, the optical density of each well was measured and the IC50 values calculated. All assays were performed in triplicate.

[3] = system: Leishmania amazonensis promastigotes; test: as above; format: cell-based; details: 72 h, read-out: Leishmanicidal activity L.a, IC50
Description: as §1

[4] = L. braziliensis M2904 C192 RJA promastigotes, 26 °C, triplicate
[5] = L. amazonensis Clone 1 NHOM-BR-76-LTB-012 promastigotes, 26 °C, triplicate

COC(=O)CC1C(C)(C)OC(=O)CC2OC3(C)C4C(=O)CC(c5ccoc5)C4(C)C(OC(C)=O)C(OC(=O)C(C)C)C3C21C (stereo not drawn) [Compound 1, Trichilone A]
melting point: 143 °C
IC50 at 72 h [1]: 42 ± 0.9 µg/mL (≈ 68.1 µM)
IC50 [2, 4]: 58 ± 18 µg/mL (≈ 94 µM)

CCC(C)C(=O)OC1C(OC(C)=O)C2(C)C(c3ccoc3)CC(=O)C2C2(C)OC3CC(=O)OC(C)(C)C(CC(=O)OC)C3(C)C12 (stereo not drawn) [Compound 2, Trichilone B]
IC50 at 72 h [1]: 30 ± 10 µg/mL (≈ 47.6 µM)
IC50 [3, 5]: > 100 µg/mL
IC50 [2, 4]: 70.1 ± 3 µg/mL (≈ 111 µM)

CCC(C)C(=O)OC1C(OC(C)=O)C2(C)C(c3ccoc3)CC(=O)C2C2(C)OC3CC(=O)OC(C)(C)C(CC(=O)OC)C3(C)C12O (stereo not drawn) [Compound 3, Trichilone C]
IC50 at 72 h [1]: 60 ± 17 µg/mL (≈ 92.8 µM)
IC50 [3]: > 100 µg/mL
IC50 [2]: 87.2 ± 13 µg/mL (≈ 135 µM)

COC(=O)CC1C(C)(C)OC(=O)C=C2OC3(C)C(C(OC(C)=O)C(OC(C)=O)C4(C)C(c5ccoc5)CC(=O)C34)C21C (stereo not drawn) [Compound 4, Trichilone D]
IC50 at 72 h [1]: 94.1 ± 4.2 µg/mL (≈ 160 µM)
IC50 [3, 5]: > 100 µg/mL
IC50 [2, 4]: 98.5 ± 1.5 µg/mL (≈ 168 µM)

COC(=O)CC1C(C)(C)OC(=O)C=C2OC3(C)C(C(OC(=O)C(C)C)C(OC(C)=O)C4(C)C(c5ccoc5)CC(=O)C34)C21C (stereo not drawn) [Compound 5, Trichilone E]
IC50 at 72 h [1]: 41.5 ± 24 µg/mL (≈ 67.5 µM)
IC50 [3, 5]: 92 ± 7 µg/mL (≈ 150 µM)
IC50 [2, 4]: 68.1 ± 6 µg/mL (≈ 111 µM)

CCCCCCCCCCCCCCCCOP(=O)([O-])OCC[N+](C)(C)C [Miltefosine, reference compound]
IC50 at 72 h [1]: 21 ± 2 µg/mL (≈ 51.5 µM)
IC50 [3, 5]: 5 ± 0.2 µg/mL (≈ 12.3 µM)
IC50 [2, 4]: 4.07 ± 0.5 µg/mL (≈ 9.99 µM)
